The text below walks through data of US20180265515A1 (Genentech, Inc., priority 2015, published 2018).

Assay [1] deals with JAK1-dependent STAT6 phosphorylation downstream of IL-13 stimulation in BEAS-2B human bronchial epithelial cells. The experiment in a line: JAK1 pathway assay in BEAS-2B cells (IL-13 stimulated STAT6 phosphorylation, MSD). It counts as cell-based. As to conditions: read-out: P-STAT6 BEAS2B + IL13 IC50. On the procedure:
JAK1 Pathway Assay in Cell Lines was Carried Out as Follows:
Inhibitor potency (EC50) was determined in cell-based assays designed to measure JAK1 dependent STAT phosphorylation. As noted above, inhibition of IL-4, IL-13, and IL-9 signaling by blocking the Jak/Stat signaling pathway can alleviate asthmatic symptoms in pre-clinical lung inflammation models (Mathew et al., 2001, J Exp Med 193(9): 1087-1096; Kudlacz et. al., 2008, Eur J. Pharmacol 582(1-3): 154-161).
In one assay approach, TF-1 human erythroleukemia cells obtained from the American Type Culture Collection (ATCC; Manassas, Va.) were used to measure JAK1-dependent STAT6 phosphorylation downstream of IL-13 stimulation. Prior to use in the assays, TF-1 cells were starved of GM-CSF overnight in OptiMEM medium (Life Technologies, Grand Island, N.Y.) supplemented with 0.5% charcoal/dextran stripped fetal bovine serum (FBS), 0.1 mM non-essential amino acids (NEAA), and 1 mM sodium pyruvate. The assays were run in 384-well plates in serum-free OptiMEM medium using 300,000 cells per well. In a second assay approach, BEAS-2B human bronchial epithelial cells obtained from ATCC were plated at 100,000 cells per well of a 96-well plate one day prior to the experiment. The BEAS-2B assay was run in complete growth medium (bronchial epithelial basal medium plus bulletkit; Lonza; Basel, Switzerland).
Test compounds were serially diluted 1:2 in DMSO and then diluted 1:50 in medium just before use. Diluted compounds were added to the cells, for a final DMSO concentration of 0.2%, and incubated for 30 min (for the TF-1 assay) or 1 hr (for the BEAS-2B assay) at 37° C. Then, cells were stimulated with human recombinant cytokine at their respective EC90 concentrations, as previously determined for each individual lot. Cells were stimulated with IL-13 (R&D Systems, Minneapolis, Minn.) for 15 min at 37° C. The TF-1 cell reactions were stopped by the direct addition of 10× lysis buffer (Cell Signaling Technologies, Danvers, Mass.), whereas the BEAS-2B cell incubations were halted by the removal of medium and addition of 1× lysis buffer. The resultant samples were frozen in the plates at −80° C. Compound mediated inhibition of STAT6 phosphorylation was measured in the cell lysates using MesoScale Discovery (MSD) technology (Gaithersburg, Md.). EC50 values were determined as the concentration of compound required for 50% inhibition of STAT phosphorylation relative to that measured for the DMSO control.

Assay [2] has as its target T1, isolated recombinant JAK2 kinase domain (Homo sapiens, UniProt O60674).
T1 construct: The activity of the isolated recombinant JAK1 and JAK2 kinase domain was measured
Description: JAK2 enzyme assay (Caliper LabChip, Ki). Conditions: 25 μM ATP. It counts as biochemical. Here is the method: (§1) JAK Enzyme Assays were Carried Out as Follows:
(§2) The activity of the isolated recombinant JAK1 and JAK2 kinase domain was measured by monitoring phosphorylation of a peptide derived from JAK3 (Val-Ala-Leu-Val-Asp-Gly-Tyr-Phe-Arg-Leu-Thr-Thr, fluorescently labeled on the N-terminus with 5-carboxyfluorescein) using the Caliper LabChip® technology (Caliper Life Sciences, Hopkinton, Mass.). […] Reactions were incubated at 22° C. in 384-well polypropylene microtiter plates for 30 minutes and then stopped by addition of 25 μL of an EDTA containing solution (100 mM HEPES buffer (pH 7.2), 0.015% Brij-35, 150 mM EDTA), resulting in a final EDTA concentration of 50 mM. After termination of the kinase reaction, the proportion of phosphorylated product was determined as a fraction of total peptide substrate using the Caliper LabChip® 3000 according to the manufacturer's specifications. Ki values were then determined using the Morrison tight binding model (Morrison, J. F., Biochim. Biophys. Acta. 185:269-296 (1969); William, J. W. and Morrison, J. F., Meth. Enzymol., 63:437-467 (1979)) modified for ATP-competitive inhibition [Ki=Ki,app/(1+[ATP]/Km,app)].

Assay [3] deals with T2, isolated recombinant JAK1 kinase domain (Homo sapiens, UniProt P23458).
T2 construct: The activity of the isolated recombinant JAK1 and JAK2 kinase domain was measured
Description: JAK1 enzyme assay (Caliper LabChip, Ki). Conditions: recombinant JAK1 kinase domain, 25 μM ATP. It counts as biochemical. On the procedure: as §1, §2

Molecules are shown by their SMILES.

T2 sequence (P23458 875-1153 limits assumed): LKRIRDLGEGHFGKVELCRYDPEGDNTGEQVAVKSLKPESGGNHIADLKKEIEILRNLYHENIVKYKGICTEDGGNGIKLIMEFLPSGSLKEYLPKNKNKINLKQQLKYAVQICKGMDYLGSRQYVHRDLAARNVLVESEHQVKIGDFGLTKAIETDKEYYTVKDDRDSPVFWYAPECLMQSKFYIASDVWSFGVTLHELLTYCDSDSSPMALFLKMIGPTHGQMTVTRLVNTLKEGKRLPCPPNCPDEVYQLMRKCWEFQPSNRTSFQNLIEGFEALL
T1 sequence (O60674 849-1124 limits assumed): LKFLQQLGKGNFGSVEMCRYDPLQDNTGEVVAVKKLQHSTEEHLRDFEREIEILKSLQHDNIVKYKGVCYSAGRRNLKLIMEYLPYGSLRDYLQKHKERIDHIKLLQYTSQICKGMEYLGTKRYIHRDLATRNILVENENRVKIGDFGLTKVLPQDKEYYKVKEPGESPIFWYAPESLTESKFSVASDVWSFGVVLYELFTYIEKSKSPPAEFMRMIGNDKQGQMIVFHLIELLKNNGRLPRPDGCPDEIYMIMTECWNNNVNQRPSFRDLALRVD

Usually IC50 stands for the concentration at which inhibition is half-maximal. Broadly, the Ki is the dissociation constant of the complex between target and ligand, obtained from inhibition or displacement. On to `CSc1ccc(OC(F)F)c(-c2nn(CC(=O)N3CCN(C4CCSCC4)CC3)cc2NC(=O)c2cnn3cccnc23)c1` [Example 66, N-[3-[2-(difluoromethoxy)-5-methylsulfanyl-phenyl]-1-[2-oxo-2-(4-tetrahydrothiopyran-4-ylpiperazin-1-yl)ethyl]pyrazol-4-yl]pyrazolo[1,5-a]pyrimidine-3-carboxamide], for which, in assay [1], the IC50 was found to be 5 nM. Moreover, the Ki in assay [2] was determined as 0.24 nM; in assay [3], 0.2 nM.

On to `CC(C)Sc1ccc(OC(F)F)c(-c2nn(CC(=O)N3CCC(N4CCCC(C#N)C4)CC3)cc2NC(=O)c2cnn3cccnc23)c1` (stereo not drawn) [Example 107, N-[1-[2-[4-(3-cyano-1-piperidyl)-1-piperidyl]-2-oxo-ethyl]-3-[2-(difluoromethoxy)-5-isopropylsulfanyl-phenyl]pyrazol-4-yl]pyrazolo[1,5-a]pyrimidine-3-carboxamide], for which, in assay [1], the IC50 turned out to be 56 nM. Besides, the Ki in assay [2] was found to be 1.7 nM; in assay [3], 0.75 nM.

As to `CC(C)Sc1ccc(OC(F)F)c(-c2nn(CC(=O)N3CCC(NCC(=O)N(C)C)CC3)cc2NC(=O)c2cnn3cccnc23)c1` [Example 104, N-[3-[2-(difluoromethoxy)-5-isopropylsulfanyl-phenyl]-1-[2-[4-[[2-(dimethylamino)-2-oxo-ethyl]amino]-1-piperidyl]-2-oxo-ethyl]pyrazol-4-yl]pyrazolo[1,5-a]pyrimidine-3-carboxamide], the IC50 in assay [1] worked out at 160 nM. For the same compound, the Ki in assay [2] amounted to 1.2 nM; in assay [3] it was 0.42 nM.

As to `CSc1ccc(OC(F)F)c(-c2nn(CC(=O)N3CCN(C4CCOC4)CC3)cc2NC(=O)c2cnn3cccnc23)c1` (stereo not drawn) [Example 54, N-[3-[2-(difluoromethoxy)-5-methylsulfanyl-phenyl]-1-[2-oxo-2-(4-tetrahydrofuran-3-ylpiperazin-1-yl)ethyl]pyrazol-4-yl]pyrazolo[1,5-a]pyrimidine-3-carboxamide], the IC50 in assay [1] stood at 12 nM. Also, the figures for the Ki in assay [2] and in assay [3] were 0.31 nM and 0.23 nM, respectively.

Regarding `O=C(Nc1cn(CC(=O)N2CCN(C3CCOCC3)CC2)nc1-c1cc(SC2COC2)ccc1OC(F)F)c1cnn2cccnc12` [Example 184, N-[3-[2-(difluoromethoxy)-5-(oxetan-3-ylsulfanyl)phenyl]-1-[2-oxo-2-(4-tetrahydropyran-4-ylpiperazin-1-yl)ethyl]pyrazol-4-yl]pyrazolo[1,5-a]pyrimidine-3-carboxamide], in assay [1], the IC50 turned out to be 74 nM. Further, the inhibition constant (Ki) in assay [2] stood at 1.1 nM; in assay [3] it was 0.56 nM.

Turning to `COC(=O)N1CCN(CC2CCN(C(=O)Cn3cc(NC(=O)c4cnn5cccnc45)c(-c4cc(SC)ccc4OC(F)F)n3)CC2)CC1` [Example 83, methyl 4-[[1-[2-[3-[2-(difluoromethoxy)-5-methylsulfanyl-phenyl]-4-(pyrazolo[1,5-a]pyrimidine-3-carbonylamino)pyrazol-1-yl]acetyl]-4-piperidyl]methyl]piperazine-1-carboxylate], the IC50 in assay [1] stood at 10 nM. Besides, the results for the Ki in assay [2] and in assay [3] were 0.44 nM and 0.3 nM, respectively.

Consider `CSc1ccc(OC(F)F)c(-c2nn(CC(=O)N3CCC(N(C)[C@@H]4CCOC4)CC3)cc2NC(=O)c2cnn3cccnc23)c1` [Example 60, N-[3-[2-(difluoromethoxy)-5-methylsulfanyl-phenyl]-1-[2-[4-[methyl-[(3R)-tetrahydrofuran-3-yl]amino]-1-piperidyl]-2-oxo-ethyl]pyrazol-4-yl]pyrazolo[1,5-a]pyrimidine-3-carboxamide], for which the IC50 in assay [1] was found to be 14 nM. Further, the Ki is 0.52 nM in assay [2] and 0.31 nM in assay [3].

For the compound `CSc1ccc(OC(F)F)c(-c2nn(CC(=O)N3CCC(N(C)CCC(=O)N4CCC4)CC3)cc2NC(=O)c2cnn3cccnc23)c1` [Example 68, N-[1-[2-[4-[[3-(azetidin-1-yl)-3-oxo-propyl]-methyl-amino]-1-piperidyl]-2-oxo-ethyl]-3-[2-(difluoromethoxy)-5-methylsulfanyl-phenyl]pyrazol-4-yl]pyrazolo[1,5-a]pyrimidine-3-carboxamide], the IC50 in assay [1] was determined as 300 nM. The Ki in assay [2] was found to be 0.85 nM; in assay [3], 0.47 nM.
